{"source": "ChEMBL document CHEMBL4346660", "about": "“Cryptolepine and aromathecin based mimics as potent G-quadruplex-binding, DNA-cleavage and anticancer agents: Design, synthesis and DNA targeting-induced apoptosis” (Eur J Med Chem, 2019)", "key": {"MGC-803 [1]": {"system": "MGC-803", "test": "Antiproliferative activity against human MGC803 cells assessed as inhibition of cell proliferation at 10 uM measured for 12 to 72 hrs by MTT assay relative to control", "type": "functional"}, "L02": {"system": "L02", "test": "Cytotoxicity against human HL7702 cells assessed as reduction in cell viability incubated for 48 hrs by MTT assay", "type": "cell-based", "conditions": "L02, 48 h"}, "Quadruplex DNA [2]": {"system": "Quadruplex DNA", "test": "Binding affinity to human Pu27 G-quadruplex DNA assessed as Stern-Volmer quenching constant by fluorometric titration assay", "type": "nucleic-acid assay"}, "Quadruplex DNA [3]": {"system": "Quadruplex DNA", "test": "Binding affinity to human c-Kit-1 G-quadruplex DNA assessed as Stern-Volmer quenching constant by fluorometric titration assay", "type": "nucleic-acid assay"}, "Quadruplex DNA [4]": {"system": "Quadruplex DNA", "test": "Binding affinity to human HTG21 G-quadruplex DNA at 10 uM incubated for 5 mins by CD spectroscopy", "type": "nucleic-acid assay"}, "Quadruplex DNA [5]": {"system": "Quadruplex DNA", "test": "Binding affinity to human c-Kit-1 G-quadruplex DNA at 10 uM incubated for 5 mins by CD spectroscopy", "type": "nucleic-acid assay"}, "MGC-803 [6]": {"system": "MGC-803", "test": "Cell cycle arrest in human MGC803 cells assessed as accumulation of cells at S phase at 0.5 uM incubated for 48 hrs by propidium iodide staining based flow cytometry (reference value: 32.97%)", "type": "functional"}, "MGC-803 [7]": {"system": "MGC-803", "test": "Cell cycle arrest in human MGC803 cells assessed as accumulation of cells at S phase at 1 uM incubated for 48 hrs by propidium iodide staining based flow cytometry (reference value: 32.97%)", "type": "functional"}, "MGC-803 [8]": {"system": "MGC-803", "test": "Cell cycle arrest in human MGC803 cells assessed as accumulation of cells at G2/M phase at 0.5 uM incubated for 48 hrs by propidium iodide staining-based flow cytometry (reference value: 13.07%)", "type": "functional"}, "MGC-803 [9]": {"system": "MGC-803", "test": "Cell cycle arrest in human MGC803 cells assessed as down regulation of cyclin B1 expression at 0.5 to 2.5 uM incubated for 24 hrs by Western blot analysis", "type": "functional, cell-based"}, "MGC-803 [10]": {"system": "MGC-803", "test": "Cell cycle arrest in human MGC803 cells assessed as increase in p27 expression at 0.5 to 2.5 uM incubated for 24 hrs by Western blot analysis", "type": "functional, cell-based"}, "MGC-803 [11]": {"system": "MGC-803", "test": "Induction of apoptosis in human MGC803 cells assessed as viable cells at 0.5 uM incubated for 24 hrs by Annexin V-FITC/propidium iodide staining based flow cytometry (reference value: 96.53+/-2.11%)", "type": "functional", "conditions": "MGC-803, 24 h, read-out: Activity"}, "MGC-803 [12]": {"system": "MGC-803", "test": "Induction of apoptosis in human MGC803 cells assessed as early apoptotic cells at 0.5 uM incubated for 24 hrs by Annexin V-FITC/propidium iodide staining based flow cytometry (reference value: 0.97 +/- 0.10 %)", "type": "functional"}, "MGC-803 [13]": {"system": "MGC-803", "test": "Induction of apoptosis in human MGC803 cells assessed as early apoptotic cells at 2.5 uM incubated for 24 hrs by Annexin V-FITC/propidium iodide staining based flow cytometry (reference value: 0.97 +/- 0.10 %)", "type": "functional"}, "MGC-803 [14]": {"system": "MGC-803", "test": "Induction of apoptosis in human MGC803 cells assessed as late apoptotic cells at 0.5 uM incubated for 24 hrs by Annexin V-FITC/propidium iodide staining based flow cytometry (reference value: 0.69 +/- 0.05 %)", "type": "functional"}, "MGC-803 [15]": {"system": "MGC-803", "test": "Induction of apoptosis in human MGC803 cells assessed as late apoptotic cells at 1 uM incubated for 24 hrs by Annexin V-FITC/propidium iodide staining based flow cytometry (reference value: 0.69 +/- 0.05 %)", "type": "functional"}, "MGC-803 [16]": {"system": "MGC-803", "test": "Induction of apoptosis in human MGC803 cells assessed as late apoptotic cells at 2.5 uM incubated for 24 hrs by Annexin V-FITC/propidium iodide staining based flow cytometry (reference value: 0.69 +/- 0.05 %)", "type": "functional"}, "MGC-803 [17]": {"system": "MGC-803", "test": "Induction of apoptosis in human MGC803 cells assessed as necrotic cells at 1 uM incubated for 24 hrs by Annexin V-FITC/propidium iodide staining based flow cytometry (reference value: 1.81 +/- 0.09 %)", "type": "functional"}, "MGC-803 [18]": {"system": "MGC-803", "test": "Induction of apoptosis in human MGC803 cells assessed as formation of apoptotic bodies at 2.5 uM after 24 hrs by Hoechst 33258 staining-based fluorescence microscopic method", "type": "functional, cell-based"}, "MGC-803 [19]": {"system": "MGC-803", "test": "Induction of apoptosis in human MGC803 cells assessed as nuclear condensation at 2.5 uM after 24 hrs by Hoechst 33258 staining-based fluorescence microscopic method", "type": "functional, cell-based"}, "MGC-803 [20]": {"system": "MGC-803", "test": "Induction of apoptosis in human MGC803 cells assessed as increase in Bim levels at 0.5 to 2.5 uM after 24 hrs by Western blot analysis", "type": "functional, cell-based"}, "MGC-803 [21]": {"system": "MGC-803", "test": "Induction of apoptosis in human MGC803 cells assessed as increase in Bak levels at 0.5 to 2.5 uM after 24 hrs by Western blot analysis", "type": "functional, cell-based"}, "MGC-803 [22]": {"system": "MGC-803", "test": "Induction of apoptosis in human MGC803 cells assessed as increase in Bax levels at 0.5 to 2.5 uM after 24 hrs by Western blot analysis", "type": "functional, cell-based"}, "MGC-803 [23]": {"system": "MGC-803", "test": "Induction of apoptosis in human MGC803 cells assessed as decrease in Bcl-2 expression at 0.5 to 2.5 uM after 24 hrs by Western blot analysis", "type": "functional, cell-based"}, "MGC-803 [24]": {"system": "MGC-803", "test": "Induction of apoptosis in human MGC803 cells assessed as increase in cytochrome-c expression at 0.5 to 2.5 uM after 24 hrs by Western blot analysis", "type": "functional, cell-based"}, "MGC-803 [25]": {"system": "MGC-803", "test": "Induction of apoptosis in human MGC803 cells assessed as activated caspase-3 level at 2.5 uM after 24 hrs by FITC staining-based flow cytometric analysis (Rvb= 3.46%)", "type": "functional"}, "MGC-803 [26]": {"system": "MGC-803", "test": "Induction of apoptosis in human MGC803 cells assessed as increase in AIF expression at 0.5 to 2.5 uM after 24 hrs by Western blot analysis", "type": "functional, cell-based"}, "MGC-803 [27]": {"system": "MGC-803", "test": "Induction of mitochondrial membrane depolarization in human MGC803 cells at 1 uM incubated for 24 hrs by JC-1 dye-based flow cytometric analysis (Rvb 3.37%)", "type": "functional"}, "MGC-803 [28]": {"system": "MGC-803", "test": "Induction of mitochondrial membrane depolarization in human MGC803 cells at 2.5 uM incubated for 24 hrs by JC-1 dye-based flow cytometric analysis (Rvb 3.37%)", "type": "functional"}, "MGC-803 [29]": {"system": "MGC-803", "test": "Induction of apoptosis in human MGC803 cells assessed as increase in intracellular calcium release incubated for 24 hrs by […] AM dye-based flow cytometric analysis", "type": "functional, cell-based"}, "MGC-803 [30]": {"system": "MGC-803", "test": "Induction of apoptosis in human MGC803 cells assessed as increase in ROS generation incubated for 24 hrs by DCFH-DA dye-based flow cytometric analysis", "type": "functional, cell-based"}, "MGC-803 [31]": {"system": "MGC-803", "test": "Antitumor activity against human MGC803 cells xenografted in BALB/C mouse assessed as tumor growth inhibition at 6 mg/kg, ip administered every other day for 2 weeks measured during compound dosing relative to control", "type": "functional", "conditions": "MGC-803, ip, 336 h, read-out: TGI"}, "MGC-803 [32]": {"system": "MGC-803", "test": "Antitumor activity against human MGC803 cells xenografted in BALB/C mouse assessed as tumor growth inhibition at 12 mg/kg, ip administered every other day for 2 weeks measured during compound dosing relative to control", "type": "functional", "conditions": "MGC-803, ip, 336 h"}, "[33]": {"test": "Toxicity in human MGC803 cell xenografted BALB/C mouse assessed as decrease in body weight at 6 to 12 mg/kg, ip administered every other day for 2 weeks measured during compound dosing", "type": "organism-based", "conditions": "in vivo, 336 h"}, "Calf thymus DNA": {"system": "Calf thymus DNA", "test": "Binding affinity to calf thymus DNA assessed as blue shift in maximum absorption at 10:1 compound to DNA ratio incubated for 5 mins by UV-Vis spectroscopy", "type": "nucleic-acid assay", "conditions": "Bos taurus"}}, "note": "Activity calls are given as the source filed them. The calls are words filed in the database; no cut-off is given here.", "data": [{"smiles": "CN(C)CCCNc1c2c(nc3ccc(F)cc13)-c1ccccc1C2", "values": [{"measurement": "inhibition at 10 µM", "setting": "MGC-803 [1]", "value": "40 to 95", "unit": "%"}, {"measurement": "IC50", "setting": "L02", "value": 1570, "unit": "nM"}, {"measurement": "Kq", "setting": "Quadruplex DNA [2]", "value": 1.5, "unit": "×10⁷ No_unit"}, {"measurement": "Kq", "setting": "Quadruplex DNA [3]", "value": 6.26, "unit": "×10⁶ No_unit"}, {"measurement": "Activity", "setting": "Quadruplex DNA [4]", "value": "Active"}, {"measurement": "Activity", "setting": "Quadruplex DNA [5]", "value": "Active"}, {"measurement": "Activity", "setting": "MGC-803 [6]", "value": 44.73, "unit": "%"}, {"measurement": "Activity", "setting": "MGC-803 [7]", "value": 52.87, "unit": "%"}, {"measurement": "Activity", "setting": "MGC-803 [8]", "value": 3.76, "unit": "%"}, {"measurement": "Activity", "setting": "MGC-803 [9]", "value": "Active"}, {"measurement": "Activity", "setting": "MGC-803 [10]", "value": "Active"}, {"measurement": "viability at 0.5 µM", "setting": "MGC-803 [11]", "value": 80.3, "unit": "%"}, {"measurement": "Activity", "setting": "MGC-803 [12]", "value": 13.8, "unit": "%"}, {"measurement": "Activity", "setting": "MGC-803 [13]", "value": 51.2, "unit": "%"}, {"measurement": "Activity", "setting": "MGC-803 [14]", "value": 4.15, "unit": "%"}, {"measurement": "Activity", "setting": "MGC-803 [15]", "value": 15, "unit": "%"}, {"measurement": "Activity", "setting": "MGC-803 [16]", "value": 7.45, "unit": "%"}, {"measurement": "Activity", "setting": "MGC-803 [17]", "value": 4.69, "unit": "%"}, {"measurement": "Activity", "setting": "MGC-803 [18]", "value": "Active"}, {"measurement": "Activity", "setting": "MGC-803 [19]", "value": "Active"}, {"measurement": "Activity", "setting": "MGC-803 [20]", "value": "Active"}, {"measurement": "Activity", "setting": "MGC-803 [21]", "value": "Active"}, {"measurement": "Activity", "setting": "MGC-803 [22]", "value": "Active"}, {"measurement": "Activity", "setting": "MGC-803 [23]", "value": "Active"}, {"measurement": "Activity", "setting": "MGC-803 [24]", "value": "Active"}, {"measurement": "Activity", "setting": "MGC-803 [25]", "value": 45.1, "unit": "%"}, {"measurement": "Activity", "setting": "MGC-803 [26]", "value": "Active"}, {"measurement": "Activity", "setting": "MGC-803 [27]", "value": 89.1, "unit": "%"}, {"measurement": "Activity", "setting": "MGC-803 [28]", "value": 97.5, "unit": "%"}, {"measurement": "Activity", "setting": "MGC-803 [29]", "value": "Dose-dependent effect"}, {"measurement": "Activity", "setting": "MGC-803 [30]", "value": "Dose-dependent effect"}, {"measurement": "inhibition in vivo at 6 mg/kg", "setting": "MGC-803 [31]", "value": 31.2, "unit": "%"}, {"measurement": "inhibition in vivo at 12 mg/kg", "setting": "MGC-803 [32]", "value": 53.2, "unit": "%"}, {"measurement": "Activity", "setting": "[33]", "value": "Non-Toxic"}, {"measurement": "Activity", "setting": "Calf thymus DNA", "value": 10, "unit": "nm"}]}]}
